Assay results as given in patent US9670156B2, “Crystal form III of (S)-oxiracetam, preparation method and use thereof” (Chongqing Runze Pharmaceutical Company Limited, priority 2013, dated 2017).

Legend:
[1] = design: species or system Beagle dogs; conditions: dog, in vivo; for AUCO-∞ / T1/2 / Tmax / bioavailability of crystal form I and III compared: po
Source text: Base on the existing LC-MS method for determination of (S)-oxiracetam in a biological sample, 6 healthy Beagle dogs are used in the experiment. They are weighted 8-10 kg, and divided into two groups of three. They are used to observe the bioavailability of the different crystal forms of (S)-oxiracetam after oral administration to the dogs. The pharmacokinetics of the crystal forms I and III of (S)-oxiracetam in the dogs are studied. And oxiracetam is used as reference preparation to evaluate whether the bioavailability of crystal forms I and III are equivalent. The bioequivalence is evaluated by calculating the pharmacokinetic parameters. Results: The main pharmacokinetic parameters of the crystal forms I and III of (S)-oxiracetam in the Beagle dogs are as follows: Tmax are (1.561±0.398) and (1.498±0.3988), Cmax are (198.076±80.462) and (186.205±50.321) […], respectively; T1/2 are (0.915±0.125) and (0.909±0.112) h, respectively; and AUCO-∞ are (456.268±85.567) and (436.364±75.204) […], respectively.

[2] = design: species or system Beagle dogs; conditions: dog, in vivo, po
[3] = Dissolution in aqueous solution compared with other crystal forms; assay type: physicochemical; conditions: compared with other crystal forms of (S)-oxiracetam

NC(=O)CN1C[C@@H](O)CC1=O [crystal form I, (S)-4-hydroxy-2-oxo-1-pyrrolidine acetamide]
AUCO-∞ [1]: 456268 ± 85567 µg·h/mL | T1/2 [1]: 54.9 ± 7.5 min | Tmax [1]: 1.561±0.398 | bioavailability of crystal form I and III compared [1]: exactly the same | Cmax [2]: 198 ± 80.5 µg/mL

NC(=O)CN1C[C@@H](O)CC1=O [crystal form III, (S)-4-hydroxy-2-oxo-1-pyrrolidine acetamide]
dissolution in aqueous solution [3]: dissolves fast | bioavailability [1]: high bioavailability | AUCO-∞ [1]: 436364 ± 75204 µg·h/mL | T1/2 [1]: 54.5 ± 6.72 min | Tmax [1]: 1.498±0.3988 | bioavailability of crystal form I and III compared [1]: exactly the same | Cmax [2]: 186 ± 50.3 µg/mL
